Reference: PubChem BioAssay (NCI)
Where “and” joins values, the source holds several entries; their conditions need not be identical. Equal entries are not always repeated.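 Assay format: 96-well plates, 48-hour exposure. Abbreviation: GI50, concentration required for 50% inhibition of growth. TGI denotes the concentration required for complete inhibition of growth.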

Tests used:
Assay in all cases: NCI-60 cell line screen, 48 h
[1] = tested on: EKVX NSCLC
[2] = tested on: HCT-116 colon
[3] = tested on: IGROV1 ovarian
[4] = tested on: K-562 leukemia
[5] = tested on: M14 melanoma
[6] = tested on: MALME-3M melanoma
[7] = tested on: MCF7 breast
[8] = tested on: NCI/ADR-RES ovarian
[9] = tested on: RPMI-8226 leukemia
[10] = tested on: SK-OV-3 ovarian

Compound	GI50 [1]	TGI [1]	GI50 [2]	TGI [2] [µM]	GI50 [3]	TGI [3]	GI50 [4]	TGI [4] [µM]	GI50 [5]	TGI [5]	GI50 [6] [nM]	TGI [6]	GI50 [7] [nM]	TGI [7] [µM]	GI50 [8]	TGI [8] [µM]	GI50 [9]	TGI [9]	GI50 [10] [µM]	TGI [10]
COc1ccc2nc3cc(Cl)ccc3c(NCCCNCCO)c2c1	1170 nM	4.19 µM	326 nM	1.43	577 nM	3.18 µM	383 nM	2.4	562 nM	2.16 µM	1210	2.82 µM	355	2.06	4.03 µM	19.8	497 nM	2.74 µM	0.635	3.33 µM
COc1cnc2c(c1)C(=O)c1c-2n(CCCNC2=NCCS2)c(=O)c2cc(F)ccc12	897 nM	24.5 µM	82.5 nM	1.83	434 nM	15.5 µM	249 nM	2.92	170 nM	1.32 µM	598	13.2 µM	33	1.66	0.34 µM	11.9	70.2 nM	1.21 µM	0.182	0.914 µM
CO[C@H]1C[C@@H]2CC[C@@H](C)[C@@](O)(O2)C(=O)C(=O)N2CCCC[C@H]2C(=O)O[C@H]([C@H](C)C[C@@H]2CC[C@@H](OC(=O)C(C)(CO)CO)[C@H](OC)C2)CC(=O)[C@H](C)/C=C(\C)[C@@H](O)[C@@H](OC)C(=O)[C@H](C)C[C@H](C)\C=C/C=C/C=C/1C	1.67 nM	> 10 µM	> 10000 nM	> 10	< 1 nM	> 10 µM	5960 nM	> 10	> 6060 nM	> 10 µM	7.66	> 10 µM	4.22	> 10	> 4.91 µM	> 10	1.02 nM	> 10 µM	0.00139	> 10 µM
CCCCN(CCCC)C(=O)[C@H](CC)[C@@H]1CC[C@@H](C)[C@@H]([C@H](C)[C@@H](O)[C@@H](C)C(=O)[C@H](CC)C2O[C@]3(C=C[C@@H](O)[C@]4(CC[C@@](C)([C@H]5CC[C@](O)(CC)[C@H](C)O5)O4)O3)[C@H](C)C[C@@H]2C)O1 (stereo partly drawn)	2320 nM	8.8 µM	2390 nM	6.9	3000 nM	15.2 µM	2660 nM	18.4			1870	4.16 µM	2400	7.77	2.5 µM	9.02	1790 nM	5.85 µM	3.38	> 100 µM
Cn1cc(/C=C\[N+](=O)[O-])c2ccccc21	> 100000 nM	> 100 µM	19000 nM	43	49200 nM	> 100 µM	34800 nM	> 100	37100 nM	> 100 µM	> 100000	> 100 µM	21000	80.6	> 100 µM	> 100	16100 nM	53.4 µM	> 100	> 100 µM
Oc1ccc(Br)cc1C=Nc1cccc(C(F)(F)F)c1		> 100 µM		> 100		> 100 µM		> 100		48.6 µM		75.5 µM		> 100		> 100		> 100 µM		> 100 µM
C=C1C[C@H]2C=Nc3cc(OCCCOc4cc5c(cc4OC)C(=O)N4CC(=C)C[C@H]4C=N5)c(OC)cc3C(=O)N2C1	66.5 nM and 18.2 nM					0.0341 µM		3.44	8.58 nM and < 13 nM	0.0846 µM	12.2	0.0292 µM and < 0.0144 µM		41.3	0.317 µM and 0.0972 µM	2.84	0.136 nM	0.00904 µM and 0.0252 µM	< 0.0147	33.1 µM
O=C(Nc1ccc(Oc2ccc3nc(NC(=O)c4ccco4)[nH]c3c2)cc1)Nc1cc(C(F)(F)F)ccc1F	1750 nM	> 25 µM	437 nM	4.57	1230 nM	10.2 µM	12.2 nM	6.11	786 nM	5.16 µM	699	5.31 µM	2940	15.6	1.71 µM	11.4	2170 nM	10.6 µM	3.44	12.1 µM
COc1ccc(C(O)c2cc3c(N)c(C(=O)Nc4ccc(Cl)cc4)sc3nc2C)cc1 (stereo not drawn)	3880 nM	30.7 µM	2010 nM	14.3	3220 nM	28.6 µM	694 nM	> 100	1740 nM	29.9 µM	2040	18.9 µM	707	17.2	3.86 µM	28	2220 nM	9.32 µM	3.21	15.5 µM
CC(=O)OCC1OC(n2c(=S)n(-c3ccc([N+](=O)[O-])cc3)c(=O)c3ccccc32)C(OC(C)=O)C(OC(C)=O)C1OC(C)=O (stereo not drawn)	18900 nM and 28200 nM	> 70 µM and 57.4 µM	18100 nM and 25200 nM	> 100	29200 nM and 20400 nM	> 71 µM and 54.5 µM	10700 nM and 27200 nM	> 100	16000 nM and 30700 nM	48.8 µM and > 100 µM		38.4 µM		52.6		95.2	4410 nM and 19900 nM	17.8 µM and > 100 µM		60.1 µM and 50.1 µM
c1ccc(-c2oc(-c3ccccc3)c(CN3CCCCC3)c2CN2CCCCC2)cc1	2990 nM	14.2 µM	1050 nM	11.2	1730 nM	14.4 µM	1940 nM	6.51	1830 nM	4.25 µM	1750	3.65 µM	1660	6.15	4.17 µM	15.9	1660 nM	4.08 µM	3.97	17 µM
O=C1NC(=S)S/C1=C\c1cn(-c2ccccc2)nc1-c1ccccc1	3030 nM	23.6 µM	5620 nM	21.3	13900 nM	38.9 µM	7540 nM	> 100	6750 nM	80.2 µM	3840	13.1 µM	8310	94.1	4.8 µM	> 100	2520 nM	68.6 µM	11.9	42.2 µM
